From patent publication US11020414B2, “Antimicrobial compositions with cysteamine” (priority 2010, dated 2021) come the findings set out here.

Converted amounts (≈) assume the structure as drawn. Where two headings read alike, the source gives them in different places.

Test [1] concerns Burkholderia cepacia NCTC10743. Description: MIC100 and FIC of cysteamine and tobramycin, MH broth (CLSI) and artificial sputum medium. Format: cell-based. As to the method: (§1) Both the bacterial inoculum and the antimicrobial agents, including the compounds structurally related to cysteamine, were added simultaneously to the plates. The plates were incubated at 37° C. for 24 h and the optical density was read at 625 nm on a microtitre plate reader (BioTek Powerwave XS, Winooski, USA). The MIC was obtained as the lowest concentration of antimicrobial showing total inhibition of bacterial growth.
(§2) The FIC corresponds to an interaction coefficient indicating whether the combination of antimicrobial agents is synergistic, additive, antagonist or neutral. The FIC is determined by comparing the activity of an agent in combination (MIC of agent A+agent B) with the activity of the agent alone (MIC of agent A or agent B) as follow (Singh et al., 2000): FIC=MICA[combination]/MICA[alone]+MICB[combination]/MICB[alone]
(§3) The complex pathophysiology of CF is characterized by airway obstruction caused by abnormal mucus secretion and infection, with 60-80% of patients being chronically infected with the biofilm-forming bacteria Pseudomonas aeruginosa (George et al., 2009). With a prevalence of up to 10% in adult CF patients, B. cepacia complex is a rare but major concern due to its high virulence, morbidity and transmissibility (O'Malley, 2009; Brüssow, 2012). We tested the antimicrobial activity of cysteamine-tobramycin combinations in artificial sputum medium (Yang, et al., 2011) against 4 P. aeruginosa (PAO1, ATCC27853, DSMZ1128 and DSMZ1299) and 2 B. cepacia complex strains (NCTC10743 and NCTC10744).

Test [2] has as its system Burkholderia cepacia NCTC10744. The test is described as above. The format is cell-based. Conditions: read-out: MIC100, agent alone. How it is done:
as §1, §2, §3

In test [3] the test system is P. aeruginosa PAO1 biofilm. The experiment in a line: Minimum biofilm eradication concentration against established biofilm (FIG. 4). The format is cell-based, Pseudomonas aeruginosa.
Test [4] deals with 4 P. aeruginosa (PAO1, ATCC27853, DSMZ1128 and DSMZ1299) and 2 B. cepacia complex strains (NCTC10743 and NCTC10744). The experiment in a line: microbe, parasite or virus in culture. The format is cell-based, Pseudomonas aeruginosa; Burkholderia cepacia complex. Conditions: all strains.
Source text: as §3

For test [5], the system named is P. aeruginosa PAO1 planktonic cells. The experiment in a line: MIC in physiologically-relevant ionic concentrations (FIG. 7). Format: cell-based, Pseudomonas aeruginosa. Conditions: in the presence of Ca2+ and in the presence of DNA. How it is done: Bacterial growth was followed over a 24 h period and absorbance read using a BioTek microtitre plate reader at 625 nm. Total bacterial growth inhibition was retained in the presence of NaCl, CaCl2 or DNA and at two-fold the normal MIC100 in the presence of mucin. Tobramycin activity was inhibited in the presence of the divalent cation ca^2+ and in the presence of the anionic polymer DNA. […] A similar method as described above (1.4) was used for the determination of the antimicrobial activity of cysteamine (Lynovex®) in the presence of high ionic concentrations. […] Bacterial growth was followed over a 24 h period and absorbance read using a BioTek microtitre plate reader at 625 nm.

Test [6] concerns P. aeruginosa ATCC 27853. The experiment in a line: MIC and FIC of antibiotics with cysteamine, environments mimicking a CF lung. Conditions: for MIC upon administration with cysteamine compared to administration alone: environments mimicking those found in a CF lung; for antimicrobial effect in combination with cysteamine: mucolytic environment. Format: cell-based, Pseudomonas aeruginosa. How it is done:
as §1, §2
The range of concentrations of antimicrobial agents was 0-10 μg/ml.

In test [7] the test system is Pseudomonas aeruginosa Pa01. Description: MIC determination, strain Pa01. The format is cell-based. As to the method:
(§4) The bacterial inoculum was established by the dilution method from actively-growing cultures in Mueller-Hinton (MH) broth, standardized with 0.5 McFarland turbidity standard as described in the CLSI method M26-A.
(§5) Both the bacterial inoculum and the antimicrobial agents, including the compounds structurally related to cysteamine, were added simultaneously to the plates. The plates were incubated at 37° C. for 24 h and the optical density was read at 625 nm on a microtitre plate reader (BioTek Powerwave XS, Winooski, USA). […]
(§6) A number of compounds related in chemical structure to cysteamine were examined for antimicrobial activity; cystamine (dihydrochloride salt), taurine and 2,3-dimercaptosuccinic acid. Other compounds chemically related to cysteamine are known, but are toxic, and are therefore of no utility in a drug of this nature.

Test [8] deals with Pseudomonas aeruginosa Pa14. Description: MIC determination, strain Pa14. Format: cell-based. As to the method: as §4, §5, §6
In test [9] the test system is Pseudomonas aeruginosa Pa058. The experiment in a line: MIC determination, strain Pa058. Format: cell-based. As to the method:
as §4, §5, §6

Test [10] relates to Pseudomonas aeruginosa NH57388A. Description: MIC determination, strain NH57388A. The format is cell-based. As to the method:
as §4, §5, §6

Consider `NC[C@H]1O[C@H](O[C@H]2[C@H](O)[C@@H](O[C@H]3O[C@H](CO)[C@@H](O)[C@H](N)[C@H]3O)[C@H](N)C[C@@H]2N)[C@H](N)C[C@@H]1O` [Tobramycin, reference compound], for which the MIC in test [1] (NCTC10743, B. cepacia NCTC10743, FIG. 6, read-out: MIC100, agent alone) was more than 16 µg/mL; in test [1] (NCTC10743, B. cepacia NCTC10743, in both media (MH broth and ASM), FIG. 11, read-out: MIC100, agent alone), more than 16 µg/mL; in [1] (NCTC10743, B. cepacia NH10743, ASM (Artificial Sputum Medium), read-out: MIC100, agent alone), more than 16 µg/mL; in test [1] (NCTC10743, B. cepacia NH10743, CLSI, read-out: MIC100, agent alone), more than 16 µg/mL; in test [2] (NCTC10744, B. cepacia NH10744, ASM (Artificial Sputum Medium)) it was more than 16 µg/mL; in test [2] (NCTC10744, B. cepacia NH10744, CLSI), more than 16 µg/mL. For the same molecule, the “minimum biofilm eradication concentration (MBEC), agent alone” value in test [3] stood at 4 µg/mL. Further, the “tobramycin activity in the presence of cysteamine” value in test [4] is listed as “enhanced”. The Tobramycin activity result in test [5] is reported as “inhibited”. The “MIC upon administration with cysteamine compared to administration alone” value in test [6] is on record as “greatly reduced”. Also, the “antimicrobial effect in combination with cysteamine” value in test [6] is reported as “maintained”.
Consider `O=C(O)c1cn(C2CC2)c2cc(N3CCNCC3)c(F)cc2c1=O` [Ciprofloxacin], for which, in [6], the “MIC upon administration with cysteamine compared to administration alone” value is recorded as “greatly reduced” and the “antimicrobial effect in combination with cysteamine” value is “maintained”.
For `NCCSSCCN` [Cystamine, cystamine], the MIC50 – broadly, an inhibitory concentration at the 50% level, which refers to growth in some studies and to a panel of isolates in others – in test [7] fell in the range of 250 to 1000 µg/mL (≈ 1.64 to 6.57 mM); in test [8] it was 125 to 250 µg/mL (≈ 0.821 to 1.64 mM); in [9], 250 to 500 µg/mL (≈ 1.64 to 3.28 mM); in [10], 500 to 1000 µg/mL (≈ 3.28 to 6.57 mM). The MIC90 in test [7], in [8], in test [9] and in test [10] was 1000 to 2000 µg/mL (≈ 6.57 to 13.1 mM) each time. In addition, the MIC in [7] (read-out: MIC100), in test [8] (read-out: MIC100), in [9] (read-out: MIC100) and in test [10] (read-out: MIC100) was 2000 µg/mL (≈ 13.1 mM) each time.
